# Earlier results in PubChem BioAssay AID1259409 (Chemical Carcinogenesis Research Information System (CCRIS), 2018).
# Where “and” joins values, the source holds several entries; their conditions need not be identical. Identical values can stand only once.
# Tested on: rodent chemically induced tumor inhibition, incidence and multiplicity
# Assay: CCRIS tumor inhibitor studies
# Conditions: Route [Inhibitor]: ORAL
SMILES,"tumour outcome (control, treated, inhibition, significance) (Carcinogen: 1-METHYL-1-NITROSOUREA, 684-93-5, Dose [Inhibitor]: 0, 0.03% IN A PURIFIED HIGH-FAT (24.6%) DIET FOR 37 WK BEGINNING 1 WK POST CARCINOGEN DOSE (STUDY DURATION: 38 WK), Species: RAT, Strain/Sex: SPRAGUE-DAWLEY/FEMALE, Target Tissue: Type of Lesion: MAMMARY GLAND: CARCINOMA, Dose [Carcinogen]: 12.5 MG/KG BW ONCE, Promoter: NONE USED)","tumour outcome (control, treated, inhibition, significance) (Carcinogen: 1-METHYL-1-NITROSOUREA, 684-93-5, Dose [Inhibitor]: 0, 0.03% IN DIET FOR DURATION OF STUDY BEGINNING 7 D POST CARCINOGEN DOSE (STUDY DURATION: 24 WK), Species: RAT, Strain/Sex: SPRAGUE-DAWLEY/FEMALE, Target Tissue: Type of Lesion: MAMMARY GLAND: ADENOCARCINOMA, Dose [Carcinogen]: 50 MG/KG ONCE, Promoter: NONE USED)","tumour outcome (control, treated, inhibition, significance) (Carcinogen: 1-METHYL-1-NITROSOUREA, 684-93-5, Dose [Inhibitor]: 0, 0.06% IN A PURIFIED HIGH-FAT (24.6%) DIET FOR 37 WK BEGINNING 1 WK POST CARCINOGEN DOSE (STUDY DURATION: 38 WK), Species: RAT, Strain/Sex: SPRAGUE-DAWLEY/FEMALE, Target Tissue: Type of Lesion: MAMMARY GLAND: CARCINOMA, Dose [Carcinogen]: 12.5 MG/KG BW ONCE, Promoter: NONE USED)","tumour outcome (control, treated, inhibition, significance) (Carcinogen: 1-METHYL-1-NITROSOUREA, 684-93-5, Dose [Inhibitor]: 0, 0.06% IN DIET FOR DURATION OF STUDY BEGINNING 7 D POST CARCINOGEN DOSE (STUDY DURATION: 24 WK), Species: RAT, Strain/Sex: SPRAGUE-DAWLEY/FEMALE, Target Tissue: Type of Lesion: MAMMARY GLAND: ADENOCARCINOMA, Dose [Carcinogen]: 50 MG/KG ONCE, Promoter: NONE USED)","tumour outcome (control, treated, inhibition, significance) (Carcinogen: AZOXYMETHANE, 25843-45-2, Dose [Inhibitor]: 0, 500 PPM IN DIET FOR 29 WK BEGINNING 1 WK POST CARCINOGEN TREATMENT (STUDY DURATION: 32 WK), Species: RAT, Strain/Sex: F344/MALE, Target Tissue: Type of Lesion: COLON: ADENOMA, Dose [Carcinogen]: 15 MG/KG BW 1/WK FOR 2 WK, Promoter: NONE USED)","tumour outcome (control, treated, inhibition, significance) (Carcinogen: AZOXYMETHANE, 25843-45-2, Dose [Inhibitor]: 0, 500 PPM IN DIET FOR 29 WK BEGINNING 1 WK POST CARCINOGEN TREATMENT (STUDY DURATION: 32 WK), Species: RAT, Strain/Sex: F344/MALE, Target Tissue: Type of Lesion: COLON: CARCINOMA, Dose [Carcinogen]: 15 MG/KG BW 1/WK FOR 2 WK, Promoter: NONE USED)","tumour outcome (control, treated, inhibition, significance) (Carcinogen: AZOXYMETHANE, 25843-45-2, Dose [Inhibitor]: 0, 1000 PPM IN DIET FOR 29 WK BEGINNING 1 WK POST CARCINOGEN TREATMENT (STUDY DURATION: 32 WK), Species: RAT, Strain/Sex: F344/MALE, Target Tissue: Type of Lesion: COLON: ADENOMA, Dose [Carcinogen]: 15 MG/KG BW 1/WK FOR 2 WK, Promoter: NONE USED)","tumour outcome (control, treated, inhibition, significance) (Carcinogen: AZOXYMETHANE, 25843-45-2, Dose [Inhibitor]: 0, 1000 PPM IN DIET FOR 29 WK BEGINNING 1 WK POST CARCINOGEN TREATMENT (STUDY DURATION: 32 WK), Species: RAT, Strain/Sex: F344/MALE, Target Tissue: Type of Lesion: COLON: CARCINOMA, Dose [Carcinogen]: 15 MG/KG BW 1/WK FOR 2 WK, Promoter: NONE USED)","tumour outcome (control, treated, inhibition, significance) (Carcinogen: AZOXYMETHANE, 25843-45-2, Dose [Inhibitor]: 0, 2000 PPM IN DIET FOR 29 WK BEGINNING 1 WK POST CARCINOGEN TREATMENT (STUDY DURATION: 32 WK), Species: RAT, Strain/Sex: F344/MALE, Target Tissue: Type of Lesion: COLON: ADENOMA, Dose [Carcinogen]: 15 MG/KG BW 1/WK FOR 2 WK, Promoter: NONE USED)","tumour outcome (control, treated, inhibition, significance) (Carcinogen: AZOXYMETHANE, 25843-45-2, Dose [Inhibitor]: 0, 2000 PPM IN DIET FOR 29 WK BEGINNING 1 WK POST CARCINOGEN TREATMENT (STUDY DURATION: 32 WK), Species: RAT, Strain/Sex: F344/MALE, Target Tissue: Type of Lesion: COLON: CARCINOMA, Dose [Carcinogen]: 15 MG/KG BW 1/WK FOR 2 WK, Promoter: NONE USED)","tumour outcome (control, treated, inhibition, significance) (Carcinogen: N-BUTYL-N-(N-HYDROXYBUTYL)NITROSAMINE [3817-11-6], Dose [Inhibitor]: 0, 600 MG/KG IN DIET FOR 6 MONTHS BEGINNING 1 WK PRIOR TO FIRST CARCINOGEN DOSE (STUDY DURATION: 6 MONTHS), Species: RAT, Strain/Sex: F344/FEMALE, Target Tissue: Type of Lesion: URINARY BLADDER: CARCINOMA, Dose [Carcinogen]: 150 MG IN 20% ETHANOL 2X/WK FOR 8 WK (STUDY DURATION: 6 MONTHS), Promoter: NONE)","tumour outcome (control, treated, inhibition, significance) (Carcinogen: N-BUTYL-N-(N-HYDROXYBUTYL)NITROSAMINE [3817-11-6], Dose [Inhibitor]: 0, 600 MG/KG IN DIET FOR 6 MONTHS BEGINNING 1 WK PRIOR TO FIRST CARCINOGEN DOSE (STUDY DURATION: 6 MONTHS), Species: RAT, Strain/Sex: F344/FEMALE, Target Tissue: Type of Lesion: URINARY BLADDER: PAPILLOMA, Dose [Carcinogen]: 150 MG IN 20% ETHANOL 2X/WK FOR 8 WK (STUDY DURATION: 6 MONTHS), Promoter: NONE)","tumour outcome (control, treated, inhibition, significance) (Carcinogen: N-BUTYL-N-(N-HYDROXYBUTYL)NITROSAMINE [3817-11-6], Dose [Inhibitor]: 0, 800 MG/KG IN DIET FOR 6 MONTHS BEGINNING 1 WK PRIOR TO FIRST CARCINOGEN DOSE (STUDY DURATION: 6 MONTHS), Species: RAT, Strain/Sex: F344/FEMALE, Target Tissue: Type of Lesion: URINARY BLADDER: CARCINOMA, Dose [Carcinogen]: 150 MG IN 20% ETHANOL 2X/WK FOR 8 WK (STUDY DURATION: 6 MONTHS), Promoter: NONE)","tumour outcome (control, treated, inhibition, significance) (Carcinogen: N-BUTYL-N-(N-HYDROXYBUTYL)NITROSAMINE [3817-11-6], Dose [Inhibitor]: 0, 800 MG/KG IN DIET FOR 6 MONTHS BEGINNING 1 WK PRIOR TO FIRST CARCINOGEN DOSE (STUDY DURATION: 6 MONTHS), Species: RAT, Strain/Sex: F344/FEMALE, Target Tissue: Type of Lesion: URINARY BLADDER: PAPILLOMA, Dose [Carcinogen]: 150 MG IN 20% ETHANOL 2X/WK FOR 8 WK (STUDY DURATION: 6 MONTHS), Promoter: NONE)","tumour outcome (control, treated, inhibition, significance) (Carcinogen: N-BUTYL-N-(N-HYDROXYBUTYL)NITROSAMINE [3817-11-6], Dose [Inhibitor]: 0, 1000 MG/KG IN DIET FOR 6 MONTHS BEGINNING 1 WK PRIOR TO FIRST CARCINOGEN DOSE (STUDY DURATION: 6 MONTHS), Species: RAT, Strain/Sex: F344/FEMALE, Target Tissue: Type of Lesion: URINARY BLADDER: CARCINOMA, Dose [Carcinogen]: 150 MG IN 20% ETHANOL 2X/WK FOR 8 WK (STUDY DURATION: 6 MONTHS), Promoter: NONE)","tumour outcome (control, treated, inhibition, significance) (Carcinogen: N-BUTYL-N-(N-HYDROXYBUTYL)NITROSAMINE [3817-11-6], Dose [Inhibitor]: 0, 1000 MG/KG IN DIET FOR 6 MONTHS BEGINNING 1 WK PRIOR TO FIRST CARCINOGEN DOSE (STUDY DURATION: 6 MONTHS), Species: RAT, Strain/Sex: F344/FEMALE, Target Tissue: Type of Lesion: URINARY BLADDER: PAPILLOMA, Dose [Carcinogen]: 150 MG IN 20% ETHANOL 2X/WK FOR 8 WK (STUDY DURATION: 6 MONTHS), Promoter: NONE)","tumour outcome (control, treated, inhibition, significance) (Carcinogen: N-BUTYL-N-(N-HYDROXYBUTYL)NITROSAMINE [3817-11-6], Dose [Inhibitor]: 0, 1200 MG/KG IN DIET FOR 6 MONTHS BEGINNING 1 WK PRIOR TO FIRST CARCINOGEN DOSE (STUDY DURATION: 6 MONTHS), Species: RAT, Strain/Sex: F344/FEMALE, Target Tissue: Type of Lesion: URINARY BLADDER: CARCINOMA, Dose [Carcinogen]: 150 MG IN 20% ETHANOL 2X/WK FOR 8 WK (STUDY DURATION: 6 MONTHS), Promoter: NONE)","tumour outcome (control, treated, inhibition, significance) (Carcinogen: N-BUTYL-N-(N-HYDROXYBUTYL)NITROSAMINE [3817-11-6], Dose [Inhibitor]: 0, 1200 MG/KG IN DIET FOR 6 MONTHS BEGINNING 1 WK PRIOR TO FIRST CARCINOGEN DOSE (STUDY DURATION: 6 MONTHS), Species: RAT, Strain/Sex: F344/FEMALE, Target Tissue: Type of Lesion: URINARY BLADDER: PAPILLOMA, Dose [Carcinogen]: 150 MG IN 20% ETHANOL 2X/WK FOR 8 WK (STUDY DURATION: 6 MONTHS), Promoter: NONE)","tumour outcome (control, treated, inhibition, significance) (Carcinogen: BENZO[A]PYRENE, 50-32-8, Dose [Inhibitor]: 0.03 MMOL/G OF DIET DAILY STARTING 7 D BEFORE AND CONTINUING THROUGH 3 D AFTER CARCINOGEN TREATMENT FOLLOWED BY OBSERVAT, Species: MOUSE, Strain/Sex: ICR/FEMALE, Target Tissue: Type of Lesion: FORESTOMACH: NEOPLASM, Dose [Carcinogen]: 1 MG IN 0.2 ML CORN OIL 2/WK FOR 4 WK, Promoter: NONE USED)"
CC1=C(CC(=O)O)c2cc(F)ccc2/C1=C\c1ccc(S(C)(=O)=O)cc1,"30%, 12%, 60%, p<0.05","93%, 93%, 0%, not significant","30%, 16%, 47%, p<0.05","93%, 72%, 23%, p<0.05","77%, 60%, 22%, not significant","53%, 63%, -19%, not significant","77%, 40%, 48%, p<0.05","53%, 37%, 30%, not significant","77%, 20%, 74%, p<0.05","53%, 10%, 81%, p<0.05","27%, 30%, -11%, not significant","60%, 60%, 0%, not significant","27%, 23%, 15%, not significant","60%, 43%, 28%, not significant","27%, 14%, 48%, not significant","60%, 38%, 37%, not significant","27%, 7%, 74%, not significant","60%, 27%, 55%, not significant",–
Cc1cc(C)c(C)c(O)c1C,–,–,–,–,–,–,–,–,–,–,–,–,–,–,–,–,–,–,"97%, 88%, 9%, not significant and 94%, 89%, 5%, not significant"
